According to US4740601A, “Imidazole derivatives having antimicrobial activities” (SS Pharmaceutical Co., Ltd., priority 1985, dated 1988):
≈ marks a conversion by molar mass, not a printed value. Read-outs that look alike come from different tables or passages of the source.

Key:
Type in all cases: cell-based
[1] = tested on: Candida albicans Yu-1200; experiment: antimicrobial activity, MIC; settings: YU1200, read-out: MIC
[2] = tested on: Helminthosporium sesamum IAM 5012; experiment: antimicrobial activity, MIC
[3] = tested on: Staphylococcus aureus FDA 209P; experiment: antimicrobial activity, MIC; settings: Staphylococcus aureus, FDA209P, read-out: MIC
[4] = tested on: Staphylococcus epidermidis ATCC 12228; experiment: antimicrobial activity, MIC
[5] = tested on: Candida albicans NHL 4019; experiment: antimicrobial activity, MIC; settings: Candida albicans, NHL4019, Candida albicans NHL 4019; read-out: MIC
[6] = tested on: Trichophyton rubrum NHL J; experiment: antimicrobial activity, MIC; settings: Trichophyton rubrum NHL J
[7] = tested on: Saccharomyces cerevisiae ATCC 9763; experiment: antimicrobial activity, MIC; settings: Saccharomyces cerevisiae, ATCC9763, Saccharomyces cerevisiae ATCC 9763; read-out: MIC
[8] = tested on: Gibberella fujikuroi IAM 8046; experiment: antimicrobial activity, MIC
[9] = tested on: Debaryomyces kloeckeri IFO 0015; experiment: antimicrobial activity, MIC; settings: IFO0015, read-out: MIC
[10] = tested on: Fusarium moniliforme IAM 5062; experiment: antimicrobial activity, MIC
[11] = tested on: Trichophyton mentagrophytes IFO 5812; experiment: antimicrobial activity, MIC
[12] = tested on: Epidermophyton floccosum IFO 9045; experiment: antimicrobial activity, MIC
[13] = tested on: Bacillus subtilis ATCC 6633; experiment: antimicrobial activity, MIC
[14] = tested on: Staphylococcus aureus Terajima; experiment: antimicrobial activity, MIC; settings: Staphylococcus aureus, read-out: MIC
[15] = tested on: Microsporum audounii IFO 6074; experiment: antimicrobial activity, MIC
[16] = tested on: Aspergillus niger ATCC 9642; experiment: antimicrobial activity, MIC
[17] = tested on: Streptococcus faecalis IFO 12964; experiment: antimicrobial activity, MIC; settings: Enterococcus faecalis, IFO12964, Streptococcus faecalis IFO 12964; read-out: MIC
[18] = tested on: Penicillium chrysogenum ATCC 6010; experiment: antimicrobial activity, MIC
[19] = tested on: Aspergillus oryzae IMF 4014; experiment: antimicrobial activity, MIC
[20] = tested on: Saccharomyces ruxii 6507; experiment: antimicrobial activity, MIC
[21] = tested on: Microsporum cookei IFO 8303; experiment: antimicrobial activity, MIC
[22] = tested on: Pyricularia oryzae IAM 5016; experiment: microbe, parasite or virus in culture
[23] = tested on: Staphylococcus aureus Smith; experiment: antimicrobial activity, MIC; settings: Staphylococcus aureus, read-out: MIC
[24] = tested on: Sarcina lutea ATCC 9341; experiment: antimicrobial activity, MIC
[25] = tested on: Trichophyton tonsurans IFO 5928; experiment: antimicrobial activity, MIC
[26] = tested on: Micrococcus lysodeixticus IFO 3333; experiment: antimicrobial activity, MIC
[27] = tested on: Microsporum gypseum IFO 8231; experiment: antimicrobial activity, MIC; settings: Nannizzia gypsea, IFO8231, Microsporum gypseum IFO 8231; read-out: MIC
[28] = tested on: Cladosporium fulvum IAM 5006; experiment: antimicrobial activity, MIC; settings: Fulvia fulva, IAM5006, Cladosporium fulvum IAM 5006; read-out: MIC
[29] = tested on: Trichophyton mentagrophytes QM 248; experiment: antimicrobial activity, MIC
[30] = Helminthosporium, IAM5012, Helminthosporium sesamum IAM 5012, read-out: MIC
[31] = Staphylococcus epidermidis, ATCC12228, Staphylococcus epidermidis ATCC 12228, read-out: MIC
[32] = Trichophyton rubrum, read-out: MIC
[33] = Fusarium fujikuroi, IAM8046, Gibberella fujikuroi IAM 8046, read-out: MIC
[34] = Fusarium verticillioides, IAM5062, Fusarium moniliforme IAM 5062, read-out: MIC
[35] = Trichophyton mentagrophytes, IFO5812, Trichophyton mentagrophytes IFO 5812, read-out: MIC
[36] = Epidermophyton floccosum, IFO9045, Epidermophyton floccosum IFO 9045, read-out: MIC
[37] = Bacillus subtilis, ATCC6633, Bacillus subtilis ATCC 6633, read-out: MIC
[38] = Microsporum, IFO6074, Microsporum audounii IFO 6074, read-out: MIC
[39] = Aspergillus niger, ATCC9642, Aspergillus niger ATCC 9642, read-out: MIC
[40] = Penicillium chrysogenum, ATCC6010, Penicillium chrysogenum ATCC 6010, read-out: MIC
[41] = Aspergillus oryzae, IMF4014, Aspergillus oryzae IMF 4014, read-out: MIC
[42] = Saccharomyces ruxii 6507, read-out: MIC
[43] = Paraphyton cookei, IFO8303, Microsporum cookei IFO 8303, read-out: MIC
[44] = Pyricularia oryzae, IAM5016, Pyricularia oryzae IAM 5016
[45] = Micrococcus luteus, ATCC9341, Sarcina lutea ATCC 9341, read-out: MIC
[46] = Trichophyton tonsurans, IFO5928, Trichophyton tonsurans IFO 5928, read-out: MIC
[47] = Micrococcus, IFO3333, Micrococcus lysodeixticus IFO 3333, read-out: MIC
[48] = Trichophyton mentagrophytes, QM248, Trichophyton mentagrophytes QM 248, read-out: MIC
[49] = Penicillium chrysogenum ATCC 6010

| SMILES | MIC [1] [µg/mL] | MIC [2, 30] [µg/mL] | MIC [3] [µg/mL] | MIC [4, 31] [µg/mL] | MIC [5] [µg/mL] | MIC [6, 32] [µg/mL] | MIC [7] [µg/mL] | MIC [9] [µg/mL] | MIC [10, 34] [µg/mL] | MIC [11, 35] [µg/mL] | MIC [12, 36] [µg/mL] | MIC [14] [µg/mL] | MIC [15, 38] [µg/mL] | MIC [17] [µg/mL] | MIC [20, 42] [µg/mL] | MIC [22, 44] [µg/mL] | MIC [23] [µg/mL] | MIC [25, 46] [µg/mL] | MIC [27] [µg/mL] | MIC [28] [µg/mL] | other results |
| --- | --- | --- | --- | --- | --- | --- | --- | --- | --- | --- | --- | --- | --- | --- | --- | --- | --- | --- | --- | --- | --- |
| CCCCCCOc1ccccc1C(=CSC)n1ccnc1 (single isomer, unassigned) [Compound 27] | 50 (≈ 158 µM) | < 0.2 | 12.5 (≈ 39.5 µM) | 6.25 (≈ 19.7 µM) | 25 (≈ 79 µM) | < 0.2 | < 0.2 | 1.56 (≈ 4.93 µM) | < 0.2 | < 0.2 | < 0.2 | 6.25 (≈ 19.7 µM) | < 0.2 | 12.5 (≈ 39.5 µM) | < 0.2 | < 0.2 | 12.5 (≈ 39.5 µM) | < 0.2 | < 0.2 | 3.12 (≈ 9.86 µM) | MIC [8, 33]: < 0.2 µg/mL; MIC [13, 37]: 6.25 µg/mL (≈ 19.7 µM); MIC [16, 39]: 0.39 µg/mL (≈ 1.23 µM); MIC [18, 40]: 1.56 µg/mL (≈ 4.93 µM); MIC [19, 41]: < 0.2 µg/mL; MIC [21, 43]: < 0.2 µg/mL; MIC [24, 45]: 3.12 µg/mL (≈ 9.86 µM); MIC [26, 47]: 1.56 µg/mL (≈ 4.93 µM); MIC [29, 48]: < 0.2 µg/mL |
| CCCOc1ccccc1C(=CSCc1ccccc1)n1ccnc1 (single isomer, unassigned) [Compound 3, 1-(2-n-propyloxyphenyl)-1-imidazolyl-2-benzylthioethylene] | > 100 | < 0.2 | 12.5 (≈ 35.7 µM) | – | 50 (≈ 143 µM) | < 0.2 | < 0.2 | 6.25 (≈ 17.8 µM) | – | < 0.2 | 3.12 (≈ 8.9 µM) | 6.25 (≈ 17.8 µM) | < 0.2 | 6.25 (≈ 17.8 µM) | < 0.2 | < 0.2 | 6.25 (≈ 17.8 µM) | < 0.2 | < 0.2 | 12.5 (≈ 35.7 µM) | MIC ([4]; Staphylococcus epidermidis ATCC 12228): 3.12 µg/mL (≈ 8.9 µM); MIC ([8]; Gibberella fujikuroi IAM 8046): 25 µg/mL (≈ 71.3 µM); MIC ([10]; Fusarium moniliforme IAM 5062): > 100 µg/mL; MIC ([13]; Bacillus subtilis ATCC 6633): 1.56 µg/mL (≈ 4.45 µM); MIC ([16]; Aspergillus niger ATCC 9642): 0.39 µg/mL (≈ 1.11 µM); MIC [18, 49]: 50 µg/mL (≈ 143 µM); MIC ([19]; Aspergillus oryzae IMF 4014): 6.25 µg/mL (≈ 17.8 µM); MIC ([21]; Microsporum cookei IFO 8303): 6.25 µg/mL (≈ 17.8 µM); MIC ([24]; Sarcina lutea ATCC 9341): 1.56 µg/mL (≈ 4.45 µM); MIC ([26]; Micrococcus lysodeixticus IFO 3333): 0.78 µg/mL (≈ 2.23 µM); MIC [29, 48]: < 0.2 µg/mL |
| CCOc1ccccc1C(=CSCc1ccccc1)n1ccnc1 [Compound 7] | > 100 | 0.39 (≈ 1.16 µM) | 50 (≈ 149 µM) | 25 (≈ 74.3 µM) | 100 (≈ 297 µM) | < 0.2 | < 0.2 | 25 (≈ 74.3 µM) | 6.25 (≈ 18.6 µM) | 0.78 (≈ 2.32 µM) | 6.25 (≈ 18.6 µM) | 25 (≈ 74.3 µM) | < 0.2 | 50 (≈ 149 µM) | 0.78 (≈ 2.32 µM) | < 0.2 | 12.5 (≈ 37.2 µM) | < 0.2 | 1.56 (≈ 4.64 µM) | 100 (≈ 297 µM) | MIC [8, 33]: 6.25 µg/mL (≈ 18.6 µM); MIC [13, 37]: 25 µg/mL (≈ 74.3 µM); MIC [16, 39]: 12.5 µg/mL (≈ 37.2 µM); MIC [18, 40]: 50 µg/mL (≈ 149 µM); MIC [19, 41]: 6.25 µg/mL (≈ 18.6 µM); MIC [21, 43]: 12.5 µg/mL (≈ 37.2 µM); MIC [24, 45]: 12.5 µg/mL (≈ 37.2 µM); MIC [26, 47]: 6.25 µg/mL (≈ 18.6 µM); MIC [29, 48]: 3.12 µg/mL (≈ 9.27 µM) |
| CCCOc1ccccc1C(=CSc1ccccc1)n1ccnc1 (single isomer, unassigned) [Compound 64] | > 100 | – | 25 (≈ 74.3 µM) | 6.25 (≈ 18.6 µM) | > 100 | – | 50 (≈ 149 µM) | > 100 | 50 (≈ 149 µM) | – | – | 6.25 (≈ 18.6 µM) | – | 25 (≈ 74.3 µM) | – | – | 12.5 (≈ 37.2 µM) | – | 6.25 (≈ 18.6 µM) | > 100 | MIC ([2]; Helminthosporium sesamum IAM 5012): 6.25 µg/mL (≈ 18.6 µM); MIC [6]: < 0.2 µg/mL; MIC ([8]; Gibberella fujikuroi IAM 8046): 25 µg/mL (≈ 74.3 µM); MIC ([11]; Trichophyton mentagrophytes IFO 5812): < 0.2 µg/mL; MIC ([12]; Epidermophyton floccosum IFO 9045): 6.25 µg/mL (≈ 18.6 µM); MIC ([13]; Bacillus subtilis ATCC 6633): 6.25 µg/mL (≈ 18.6 µM); MIC ([15]; Microsporum audounii IFO 6074): < 0.2 µg/mL; MIC ([16]; Aspergillus niger ATCC 9642): 12.5 µg/mL (≈ 37.2 µM); MIC [18, 49]: 12.5 µg/mL (≈ 37.2 µM); MIC ([19]; Aspergillus oryzae IMF 4014): 6.25 µg/mL (≈ 18.6 µM); MIC ([20]; Saccharomyces, 6507, Saccharomyces ruxii 6507): 1.56 µg/mL (≈ 4.64 µM); MIC ([21]; Microsporum cookei IFO 8303): 12.5 µg/mL (≈ 37.2 µM); MIC ([22]; Pyricularia oryzae IAM 5016): < 0.2 µg/mL; MIC ([24]; Sarcina lutea ATCC 9341): 6.25 µg/mL (≈ 18.6 µM); MIC ([25]; Trichophyton tonsurans IFO 5928): 3.12 µg/mL (≈ 9.27 µM); MIC ([26]; Micrococcus, IFO3333): 1.56 µg/mL (≈ 4.64 µM); MIC ([29]; Trichophyton mentagrophytes QM 248): 0.78 µg/mL (≈ 2.32 µM) |
